We go through 1 substance from US9963488B2, “Variants of the lantibiotic MU1140 and other lantibiotics with improved pharmacological properties and structural features” (priority 2012, dated 2018).

Data set [1] deals with vancomycin-resistant Enterococcus faecium (VREF). To be noted: cited from earlier work.
Data set [2] has as its system Gram-negative bacteria or yeast. To be noted: cited from earlier work.
For the next data set, the system named is Staphylococcus aureus. To be noted: pilot study; 60 times the LD50 of Staphylococcus aureus administered; cited from earlier work.
For data set [3], the system named is S. aureus or Streptococcus pneumoniae. To be noted: repeated subculture in medium with sub-lethal concentrations; cited from earlier work.
For data set [4], the system named is multi-drug resistant strains of S. aureus. To be noted: cited from earlier work.
The subject of data set [5] is Micrococcus luteus ATCC10240. Briefly: Minimum inhibitory concentration. The class given is cell-based. To be noted: THyex medium; 24 hour incubation; peptide about 90% purity. As for the experimental part: (§1) Wild-type mutacin 1140, mutacin 1140 with a F1I mutation, mutacin 1140 with a W4A mutation, and mutacin 1140 with a R13D mutation was purified to about 90% purity (measured via HPLC). The minimum inhibitory concentration (MIC) of MU1140 and variants of MU1140 was determined against several bacteria. The MIC is the lowest concentration of MU1140 that will inhibit the visible growth of a microorganism after 24 hour incubation. A lower MIC is an indication of greater inhibitory activity. Preparation of the antimicrobial agent and bacterial inoculum for minimum inhibitory concentrations (MICs) was performed by following the method described in Clinical Laboratory Standard Institute (CLSI) M07-8A with some minor modifications. Streptococcus mutans UA159 was tested overnight in a shaking incubator to maintain uniform dispersion of the bacteria. Clostridium difficile UK1 was tested in an anaerobic chamber at 37° C. The medium used was THyex.

In data set [6] the test system is Staphylococcus aureus FA1. Kind of data set: Minimum inhibitory concentration. The class given is cell-based. To be noted: THyex medium; 24 hour incubation; peptide about 90% purity. As to the method: as §1
Data set [7] relates to Clostridium difficile UK1. Kind of data set: Minimum inhibitory concentration. It counts as cell-based. To be noted: THyex medium; anaerobic chamber at 37° C.; peptide about 90% purity. As to the method: as §1
For data set [8], the system named is Streptococcus pneumonia FA1. Kind of data set: Minimum inhibitory concentration. It counts as cell-based. To be noted: THyex medium; 24 hour incubation; peptide about 90% purity. As to the method: as §1
Data set [9] relates to Streptococcus mutans UA159. Kind of data set: Minimum inhibitory concentration. It counts as cell-based. To be noted: THyex medium; overnight in shaking incubator; peptide about 90% purity. As to the method: as §1
The conditions of data set [10]: cited from earlier work.
In another data set the test system is S. pneumonia. To be noted: cited from earlier work.
Data set [11] deals with all Gram positive bacteria against which it was tested. To be noted: cited from earlier work.
For data set [12] the following is noted: murine models, cited from earlier work.

Regarding “Mu1140 Wild-type: wild-type lantibiotic MU1140 (SEQ ID NO:17) produced by Streptococcus mutans strain JH1140 (FKAWXLAXPGAARXGAFNAYA; not fully specified; lantibiotic post-translational modifications; DISULFID (3)..(7); (5)..(5) X is Dha amino acid; DISULFID (8)..(11); MOD_RES (8)..(8) Abu; (14)..(14) X is Dhb amino acid; DISULFID (16)..(21); (19)..(21) lanthionine bridge)”, the results for the “mode of antibacterial action” value (in data set [1]; in data set [4]; in the data set on S. pneumonia) were “bacteriostatic”, “bactericidal” and “bactericidal”, respectively. In [2], the activity entry was “no activity”. In addition, the efficacy result in the data set on Staphylococcus aureus is “efficacy was achieved”. Further, the “development of significant resistance” value in data set [3] is listed as “not observed”. Further, the “MIC Micrococcus luteus ATCC10240” value in [5] was found to be 0.0625. Besides, the “MIC Staphylococcus aureus FA1” value in [6] worked out at 16. Moreover, in [7], the “MIC Clostridium difficile UK1” value is given as 16. Further, the “MIC Streptococcus pneumonia FA1” value in data set [8] amounted to 0.5. In addition, the “MIC Streptococcus mutans UA159” value in data set [9] was found to be 2. The cytotoxicity in vitro entry in [10] was “low cytotoxicity”. For the same substance, in [11], the “minimum inhibitory concentration (MIC)” value is reported as “submicromolar”. Also, the toxicity entry in data set [12] (intravenous route) is given as “low toxicity”. For the same substance, in data set [12], the distribution result is given as “distributed into all body compartments”.
